# Measured values taken from PubChem BioAssay (NCI).
#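 Dose response: 5 concentrations. Exposure: 48 h. Format: 96-well plates. Endpoint: linear interpolation; highest concentration if not reached. Abbreviation: GI50, concentration required for 50% inhibition of growth. The concentration for full growth arrest is given as TGI.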
# Tests used:
# Assay in all cases: NCI-60 cell line screen, 48 h
# [1] = system: A549 NSCLC
# [2] = system: CCRF-CEM leukemia
# [3] = system: KM12 colon
# [4] = system: LOX IMVI melanoma
# [5] = system: MDA-MB-231 breast
# [6] = system: NCI-H226 lung
# [7] = system: SF-268 CNS
# [8] = system: SF-539 CNS
# [9] = system: SK-MEL-5 melanoma
# [10] = system: T-47D breast
SMILES,GI50 [1] [µM],TGI [1] [µM],GI50 [2] [µM],TGI [2] [µM],GI50 [3] [µM],TGI [3] [µM],GI50 [4] [µM],TGI [4] [µM],GI50 [5] [µM],TGI [5] [µM],GI50 [6] [µM],TGI [6] [µM],GI50 [7] [µM],TGI [7] [µM],GI50 [8] [µM],TGI [8] [µM],GI50 [9] [µM],TGI [9] [µM],GI50 [10] [µM],TGI [10] [µM]
Cc1cc2nc3c4ccccc4n(CCN(C)C)c3nc2cc1C,1.28,11.5,1.99,13.6,1.93,9.8,0.748,3.68,1.76,9.91,2.01,6.99,1.45,5.86,1.83,4.66,1.7,3.19,2.8,12.6
CSc1ccc(C2=NN(C(=O)c3ccc(N)cc3)C(c3ccc(F)cc3)C2)cc1 (stereo not drawn),13.7,32.7,0.314,1.72,2.03,4.55,2.53,6.84,12.6,30.6,11,29.6,3.09,12.6,15.6,32.4,5.66,18.8,6.45,27.6
Brc1ccc(Br)nn1,12.5,32.4,0.404,3.65,12,26.1,1.41,2.88,1.83,4.23,2.28,5.57,1.9,5.04,3.25,12.2,1.49,3.85,1.36,3.77
COc1ccc(NC(=O)O[C@H]2[C@H](O[C@H]3[C@@H](O)COC(O[C@H]4C[C@H]5[C@@H]6CC=C7C[C@@H](O)CC[C@]7(C)[C@H]6CC[C@]5(C)[C@H]4[C@H](C)C(=O)CCC(C)C)[C@@H]3OC(C)=O)OC[C@@H](O)[C@@H]2O)cc1 (stereo partly drawn),< 0.01,20.5,< 0.01,2.25,0.0323,16.4,< 0.01,< 0.01,0.318,19.2,0.0725,17.3,< 0.01,2.76,< 0.01,0.0124,< 0.01,0.0114,< 0.01,14.7
COc1cc(C2C(C#N)=C(N)Oc3cc4c(cc32)OCO4)cc2c1OCO2 (stereo not drawn),0.384,> 100,0.318,> 100,0.206,> 46.6,1,> 100,0.774,> 100,0.273,4.59,0.963,97.3,0.279,–,0.101,14.3,3.38,> 100
C=C=[CH][Sn]([c]1ccccc1)([c]1ccccc1)[c]1ccccc1,1.91,4.42,0.79,3.4,1.49,2.95,1.43,2.87,1.79,3.36,2.28,4.6,1.69,3.66,2.08,4.34,1.56,3.09,1.29,2.82
COc1ccc(-n2sc(=O)n(Cc3ccc(COC(=O)C(C)c4ccc(CC(C)C)cc4)cc3)c2=O)cc1 (stereo not drawn),9.56,25.9,0.567,3.74,7.7,14.6,0.943,1.9,1.86,7.11,11.9,33.2,5.82,12.2,5.12,10.9,7.41,14.5,1.32,5.54
COc1ccc(-c2cncn2-c2cc(OC)c(OC)c(OC)c2)cc1F,< 0.0348,> 100,< 0.0296,> 100,< 0.01,> 49.8,< 0.01,64.9,0.103,> 100,21.5,> 100,0.0548,> 100,< 0.0232,–,< 0.01,13.1,< 0.01,> 100
CN(NC(=O)CC(=O)NN(C)C(=S)c1ccc(Cl)cc1)C(=S)c1ccc(Cl)cc1,3.86,71.7,7.94,> 100,16.9,66.4,20.2,> 100,19.8,65.2,13.2,45.3,19.6,> 100,27.6,> 100,15.4,46,21.8,> 100
O=P1(O)c2ccccc2CS(=O)(=O)Cc2ccccc21,–,> 100,–,> 100,–,> 100,–,> 100,–,> 100,–,> 100,–,> 100,–,> 100,–,> 100,–,> 100
N#CSCC(=O)c1ccc(Cl)cc1,9.14,> 49.7,1.5,20.6,2.59,7.33,3.07,13.3,3.57,12.4,10.8,33.3,2.58,8.31,2.85,14.9,2.31,14.7,7.84,67.9
C/C(=N\Nc1cccc(Cl)n1)c1ccccn1,0.932,> 100,0.365,> 25.2,0.548,> 100,0.492,> 25,0.584,> 100,0.978,6.57,0.673,15.2,0.578,4.53,1.62,4.62,1.09,13.1
